After the bases stand the sugars from the 5' end (letter, count) and the backbone: PS all phosphorothioate, else s phosphorothioate and o phosphodiester by linkage. Methylation of C is not given here. e = 2'-O-(2-methoxyethyl) (MOE); k = constrained ethyl (cEt); d = 2'-deoxy (DNA); m = 2'-O-methyl
Target: HSD17B13
Conditions: ASO, HepaRG

| Sequence | target mRNA inhibition (1 µM) [%] | other results |
| --- | --- | --- |
| CAGTTATTAGAAGTCA (sugars k3 d10 k3, PS) | 85 | target mRNA inhibition (0.02 µM): 0%; target mRNA inhibition (0.078 µM): 0%; target mRNA inhibition (0.313 µM): 0%; target mRNA inhibition (1.25 µM): 56%; target mRNA inhibition (5 µM): 88% |
| CAGTTTAGATTGCATA (sugars k3 d10 k3, PS) | 60 | – |
| CAGTTTTCCTCATGAT (sugars kkdddddddddkekek, PS) | 59 | – |
| CATAAAAATCGCTGCT (sugars k3 d10 k3, PS) | 45 | – |
| CATAAAGGTGGGATAA (sugars k3 d10 k3, PS) | 23 | – |
| CATAACCTAATAACTA (sugars k3 d10 k3, PS) | 10 | – |
| CATAACTTCATAGTGG (sugars k3 d9 k3 e1, PS) | 16 | – |
| CATAAGGCCGATTCAT (sugars k3 d10 k3, PS) | 32 | – |
| CATAAGTAGTCTGCCT (sugars k3 d10 k3, PS) | 31 | – |
| CATAAGTTACCAGAGC (sugars k3 d10 k3, PS) | 80 | target mRNA inhibition (0.02 µM): 26%; target mRNA inhibition (0.078 µM): 41%; target mRNA inhibition (0.313 µM): 63%; target mRNA inhibition (1.25 µM): 86%; target mRNA inhibition (5 µM): 94% |
| CATAATAATAGCTCTA (sugars k3 d1 m1 d8 k3, PS) | 33 | – |
| CATACCACTCTTCTCA (sugars k3 d10 k3, PS) | 24 | – |
| CATAGGACATGGAGAC (sugars k3 d10 k3, PS) | 69 | target mRNA inhibition (0.02 µM): 0%; target mRNA inhibition (0.078 µM): 16%; target mRNA inhibition (0.313 µM): 37%; target mRNA inhibition (1.25 µM): 58%; target mRNA inhibition (5 µM): 83% |
| CATAGTGGACTTCATT (sugars k3 d10 k3, PS) | 34 | – |
| CATATACAGACTAAGG (sugars k3 d10 k3, PS) | 57 | – |
| CATATCCAGTAGGTGT (sugars k3 d10 k3, PS) | 37 | – |
| CATATGGTGTACACTG (sugars k3 d10 k3, PS) | 15 | – |
| CATATGTGAAGAGCTG (sugars k3 d9 k3 e1, PS) | 50 | – |
| CATATGTGAAGAGCTG (sugars k3 d10 k3, PS) | 25 | – |
| CATAUGTGAAGAGCTG (sugars k3 d1 m1 d8 k3, PS) | 39 | – |
| CATCAAGACATTCTAG (sugars k3 d10 k3, PS) | 49 | – |
| CATCCTTGGTGCTGAG (sugars k3 d10 k3, PS) | 12 | – |
| CATCGATGGAAGAAGT (sugars k3 d10 k3, PS) | 16 | – |
| CATCTAACTAACCTGA (sugars k3 d10 k3, PS) | 0 | – |
| CATCTAGAATTAAGGG (sugars k3 d10 k3, PS) | 53 | – |

| Sequence | target mRNA inhibition (1 µM) [%] | other results |
| --- | --- | --- |
| CATCTATCATGCCTTC (sugars k3 d10 k3, PS) | 18 | – |
| CATCTCTGGGACCAAG (sugars k3 d10 k3, PS) | 51 | – |
| CATCUCTGGGACCAAG (sugars k3 d1 m1 d8 k3, PS) | 42 | – |
| CATTCGAATTTCTTCA (sugars k3 d10 k3, PS) | 77 | target mRNA inhibition (0.02 µM): 29%; target mRNA inhibition (0.078 µM): 53%; target mRNA inhibition (0.313 µM): 74%; target mRNA inhibition (1.25 µM): 91%; target mRNA inhibition (5 µM): 97% |
| CATTCTAAACTACTAT (sugars k3 d10 k3, PS) | 11 | – |
| CATTCTGTGTTCTTGT (sugars k3 d10 k3, PS) | 60 | – |
| CATTGATTCGAAACTA (sugars k3 d10 k3, PS) | 40 | – |
| CATTTAGAATACGCTG (sugars k3 d10 k3, PS) | 25 | – |
| CCAAATCAGGTAGTTT (sugars k3 d10 k3, PS) | 13 | – |
| CCAACCAAACTTCCAG (sugars k3 d1 m1 d8 k3, PS) | 30 | – |
| CCAACGACTCCAAGTA (sugars k3 d10 k3, PS) | 20 | – |
| CCAAGTAGGAGTAGAT (sugars k3 d10 k3, PS) | 19 | – |
| CCAATACAGGCCATAA (sugars k3 d10 k3, PS) | 38 | – |
| CCACATAGCTAACTCA (sugars k3 d10 k3, PS) | 53 | – |
| CCACTTTTGGTGGACT (sugars k3 d10 k3, PS) | 17 | – |
| CCAGAAGTATGTGAAC (sugars k3 d10 k3, PS) | 8 | – |
| CCAGTACAGTTCCTTT (sugars k3 d9 k3 e1, PS) | 76 | target mRNA inhibition (0.02 µM): 10%; target mRNA inhibition (0.078 µM): 20%; target mRNA inhibition (0.313 µM): 43%; target mRNA inhibition (1.25 µM): 73%; target mRNA inhibition (5 µM): 83% |
| CCATAACCATAGGACA (sugars k3 d10 k3, PS) | 63 | target mRNA inhibition (0.02 µM): 35%; target mRNA inhibition (0.078 µM): 13%; target mRNA inhibition (0.313 µM): 54%; target mRNA inhibition (1.25 µM): 78%; target mRNA inhibition (5 µM): 91% |
| CCATAATAATAGCTCT (sugars k3 d10 k3, PS) | 48 | – |
| CCATCCCCTAAGTTAT (sugars k3 d10 k3, PS) | 14 | – |
| CCATCTAGAATTAAGG (sugars k3 d10 k3, PS) | 0 | – |
| CCATCTATCAGACTTC (sugars k3 d10 k3, PS) | 78 | target mRNA inhibition (0.02 µM): 0%; target mRNA inhibition (0.078 µM): 0%; target mRNA inhibition (0.313 µM): 20%; target mRNA inhibition (1.25 µM): 63%; target mRNA inhibition (5 µM): 78% |
| CCATGCAAAAGCATTC (sugars k3 d10 k3, PS) | 72 | – |
| CCCAACCCAAGCTACC (sugars k3 d10 k3, PS) | 22 | – |
| CCCACAGAACCAATAT (sugars k3 d10 k3, PS) | 16 | – |

| Sequence | target mRNA inhibition (1 µM) [%] | other results |
| --- | --- | --- |
| CCCAGCATTATTCACC (sugars k3 d10 k3, PS) | 19 | – |
| CCCCGAATTATTTCTT (sugars k3 d10 k3, PS) | 35 | – |
| CCCGCCCTTAAGTCAT (sugars k3 d10 k3, PS) | 45 | – |
| CCCTAAGTTATTATCC (sugars k3 d10 k3, PS) | 25 | – |
| CCCTGTGTAAATAAGT (sugars k3 d10 k3, PS) | 41 | – |
| CCCTTAACAAACCTCC (sugars k3 d10 k3, PS) | 43 | – |
| CCCTTAGGAAAGCTCA (sugars k3 d10 k3, PS) | 37 | – |
| CCGCACACTGAAGCCA (sugars k3 d10 k3, PS) | 34 | – |
| CCTAAGATAAAATTGC (sugars k3 d10 k3, PS) | 18 | – |
| CCTATGAAAAACTACG (sugars k3 d10 k3, PS) | 36 | – |
| CCTCCTTATTTGTTAG (sugars k3 d10 k3, PS) | 41 | – |
| CCTCGATCCTATATAC (sugars kkdddddddddkekek, PS) | 3 | – |
| CCTCUAAGTTAGCCCC (sugars k3 d1 m1 d8 k3, PS) | 8 | – |
| CCTGCCTATTCCATGC (sugars k3 d10 k3, PS) | 24 | – |
| CCTGTGTAAATAAGTT (sugars k3 d10 k3, PS) | 18 | – |
| CCTTACCAGAATTTAC (sugars k3 d10 k3, PS) | 63 | – |
| CCTTACCTTGTGCTTG (sugars k3 d10 k3, PS) | 20 | – |
| CCTTAGGAAAGCTCAT (sugars k3 d10 k3, PS) | 29 | – |
| CCTTATACTGAAGGCT (sugars k3 d10 k3, PS) | 41 | – |
| CCTTATGATAATTTGG (sugars k3 d10 k3, PS) | 29 | – |
| CCTTGAATAGCAAGCC (sugars k3 d10 k3, PS) | 61 | – |
| CGAAACTATTCATATC (sugars k3 d10 k3, PS) | 66 | – |
| CGAATTTCTTCAAAGA (sugars k3 d10 k3, PS) | 55 | – |
| CGACTCCAAGTAGGAG (sugars k3 d10 k3, PS) | 10 | – |
| CGATCCTATATACATC (sugars kkdddddddddkekek, PS) | 29 | – |

| Sequence | target mRNA inhibition (1 µM) [%] | other results |
| --- | --- | --- |
| CGATGGAAGAAGTGCT (sugars k3 d10 k3, PS) | 3 | – |
| CGCATGCGCAGTGACG (sugars k3 d10 k3, PS) | 46 | – |
| CGGCACTCAGCTGCAG (sugars k3 d10 k3, PS) | 55 | – |
| CGGCTGGATATACTGT (sugars k3 d10 k3, PS) | 35 | – |
| CGGTCACCTTTCATAA (sugars k3 d1 m1 d8 k3, PS) | 42 | – |
| CGGTCACCTTTCATAA (sugars k3 d9 k3 e1, PS) | 67 | – |
| CGTGGCCGCACACTGA (sugars k3 d10 k3, PS) | 42 | – |
| CGTTTAAATCAGAGCA (sugars k3 d10 k3, PS) | 54 | – |
| CGTTTTGGGCTAATGA (sugars k3 d9 k3 e1, PS) | 52 | – |
| CTAAAACTGAAGGTCT (sugars k3 d10 k3, PS) | 40 | – |
| CTAAAATTGTCTAAAC (sugars k3 d9 k3 e1, PS) | 7 | – |
| CTAAACATCTCTGGGA (sugars kkdddddddddkekek, PS) | 29 | – |
| CTAAAGGTTTCTGTTG (sugars k3 d10 k3, PS) | 34 | – |
| CTAAATTTCAGTACCC (sugars k3 d10 k3, PS) | 33 | – |
| CTACACTAATATTGAG (sugars k3 d1 m1 d8 k3, PS) | 29 | – |
| CTAGAACACTTGCCTC (sugars k3 d10 k3, PS) | 25 | – |
| CTAGGAGATATAACAT (sugars k3 d10 k3, PS) | 40 | – |
| CTAGGATGATGTTCAT (sugars k3 d10 k3, PS) | 47 | – |
| CTAGGATGTTGACCTC (sugars k3 d10 k3, PS) | 0 | – |
| CTAGGGAAATCTTTCA (sugars kkdddddddddkekek, PS) | 46 | – |
| CTAGGGAGGAGGTACT (sugars k3 d10 k3, PS) | 29 | – |
| CTAGTTACAAACCACC (sugars k3 d10 k3, PS) | 43 | – |
| CTAGTTTTCGGCACTC (sugars k3 d10 k3, PS) | 33 | – |
